# Earlier results in patent publication US20240065975A1, “OTF COMPOUND CONNECTED BY SEWING” (LTS LOHMANN THERAPIE-SYSTEME AG, priority 2021, published 2024).
# Settings: compared with (R)-ketamine
compound,measurement,value
"CNC1(c2ccccc2Cl)CCCCC1=O (racemic) [(S)-ketamine, (S)-(±)-2-(2-chlorophenyl)-2-(methylamino)cyclohexan-1-one]",analgesic and anaesthetic potency relative to the (R) form,approximately three times higher
